Measurements from the supplement of paper PMC10307832.

Legend:
Assay in all cases: relative viability (nuclei count vs DMSO), 5 days (fraction); higher = more cells survive
NCI-H1915 = test system: NCI-H1915
Summary of the method: (§1)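 Lung cancer cell lines were pin-tool dosed in 1536-well plates on the day after seeding, with either a lone drug or a fixed anchor-drug dose plus five library-drug doses (not always all listed) in √10 steps. Nuclei were counted on 4× images after 5 days. Relative viability is the ratio of treated-well to vehicle-well nuclei counts, with each value a median of duplicate plates.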

H3255 = test system: H3255
Summary of the method: as §1

UMC-11 = test system: UMC-11
Summary of the method: as §1

RERF-LC-KJ = test system: RERF-LC-KJ
Summary of the method: as §1

NCI-H2085 = test system: NCI-H2085
Summary of the method: as §1

NCI-H358 = test system: NCI-H358
Summary of the method: as §1

NCI-H1666 = test system: NCI-H1666
Summary of the method: as §1

NCI-H1355 = test system: NCI-H1355
Summary of the method: as §1

SK-MES-1 = test system: SK-MES-1
Summary of the method: as §1

NCI-H1651 = test system: NCI-H1651
Summary of the method: as §1

NCI-H838 = test system: NCI-H838
Summary of the method: as §1

LC-2-ad = test system: LC-2-ad
Summary of the method: as §1

NCI-H661 = test system: NCI-H661
Summary of the method: as §1

PC-3 [JPC-3] = test system: PC-3 [JPC-3]
Summary of the method: as §1

LK-2 = test system: LK-2
Summary of the method: as §1

ABC-1 = test system: ABC-1
Summary of the method: as §1

A-427 = test system: A-427
Summary of the method: as §1

NCI-H1563 = test system: NCI-H1563
Summary of the method: as §1

NCI-H1792 = test system: NCI-H1792
Summary of the method: as §1

NCI-H2228 = test system: NCI-H2228
Summary of the method: as §1

NCI-H2087 = test system: NCI-H2087
Summary of the method: as §1

NCI-H1395 = test system: NCI-H1395
Summary of the method: as §1

CAL-12T = test system: CAL-12T
Summary of the method: as §1

NCI-H322M = test system: NCI-H322M
Summary of the method: as §1

LCLC-97TM1 = test system: LCLC-97TM1
Summary of the method: as §1

Compound: CCCCCCCCCCCC1=C(O)C(=O)C=C(O)C1=O [Embelin] + C[C@]1(O)C[C@@H](c2nc(-c3ccc4ccc(-c5ccccc5)nc4c3)c3c(N)nccn32)C1 [Linsitinib] (partner 1 µM)
- relative viability (NCI-H1915; first compound 0.08 µM): 1.17
- relative viability (NCI-H1915; first compound 0.8 µM): 1.11
- relative viability (NCI-H1915; first compound 2.53 µM): 1.13
- relative viability (NCI-H1915; first compound 8 µM): 1.12
- relative viability (H3255; first compound 0.08 µM): 1
- relative viability (H3255; first compound 0.8 µM): 1.23
- relative viability (H3255; first compound 2.53 µM): 0.931
- relative viability (H3255; first compound 8 µM): 0.922
- relative viability (UMC-11; first compound 0.08 µM): 1.03
- relative viability (UMC-11; first compound 0.8 µM): 1.08
- relative viability (UMC-11; first compound 2.53 µM): 1.11
- relative viability (UMC-11; first compound 8 µM): 0.984
- relative viability (RERF-LC-KJ; first compound 0.08 µM): 0.905
- relative viability (RERF-LC-KJ; first compound 0.8 µM): 0.89
- relative viability (RERF-LC-KJ; first compound 2.53 µM): 0.961
- relative viability (RERF-LC-KJ; first compound 8 µM): 0.908
- relative viability (NCI-H2085; first compound 0.08 µM): 0.909
- relative viability (NCI-H2085; first compound 0.8 µM): 1.02
- relative viability (NCI-H2085; first compound 2.53 µM): 0.972
- relative viability (NCI-H2085; first compound 8 µM): 1.04
- relative viability (NCI-H358; first compound 0.08 µM): 0.691
- relative viability (NCI-H358; first compound 0.8 µM): 0.908
- relative viability (NCI-H358; first compound 2.53 µM): 0.92
- relative viability (NCI-H358; first compound 8 µM): 0.842
- relative viability (NCI-H1666; first compound 0.08 µM): 0.898
- relative viability (NCI-H1666; first compound 0.8 µM): 0.995
- relative viability (NCI-H1666; first compound 2.53 µM): 0.83
- relative viability (NCI-H1666; first compound 8 µM): 0.97
- relative viability (NCI-H1355; first compound 0.08 µM): 0.757
- relative viability (NCI-H1355; first compound 0.8 µM): 0.813
- relative viability (NCI-H1355; first compound 2.53 µM): 0.968
- relative viability (NCI-H1355; first compound 8 µM): 0.724
- relative viability (SK-MES-1; first compound 0.08 µM): 1.17
- relative viability (SK-MES-1; first compound 0.8 µM): 1.11
- relative viability (SK-MES-1; first compound 2.53 µM): 1.17
- relative viability (SK-MES-1; first compound 8 µM): 1.04
- relative viability (NCI-H1651; first compound 0.08 µM): 0.955
- relative viability (NCI-H1651; first compound 0.8 µM): 1.1
- relative viability (NCI-H1651; first compound 2.53 µM): 1.04
- relative viability (NCI-H1651; first compound 8 µM): 0.878
- relative viability (NCI-H838; first compound 0.08 µM): 1.06
- relative viability (NCI-H838; first compound 0.8 µM): 1.13
- relative viability (NCI-H838; first compound 2.53 µM): 1.03
- relative viability (NCI-H838; first compound 8 µM): 1.07
- relative viability (LC-2-ad; first compound 0.08 µM): 0.822
- relative viability (LC-2-ad; first compound 0.8 µM): 0.891
- relative viability (LC-2-ad; first compound 2.53 µM): 0.526
- relative viability (LC-2-ad; first compound 8 µM): 0.913
- relative viability (NCI-H661; first compound 0.08 µM): 0.635
- relative viability (NCI-H661; first compound 0.8 µM): 0.717
- relative viability (NCI-H661; first compound 2.53 µM): 0.546
- relative viability (NCI-H661; first compound 8 µM): 0.623
- relative viability (PC-3 [JPC-3]; first compound 0.08 µM): 0.972
- relative viability (PC-3 [JPC-3]; first compound 0.8 µM): 0.967
- relative viability (PC-3 [JPC-3]; first compound 2.53 µM): 0.947
- relative viability (PC-3 [JPC-3]; first compound 8 µM): 0.983
- relative viability (LK-2; first compound 0.08 µM): 0.685
- relative viability (LK-2; first compound 0.8 µM): 0.525
- relative viability (LK-2; first compound 2.53 µM): 0.805
- relative viability (LK-2; first compound 8 µM): 0.547
- relative viability (ABC-1; first compound 0.08 µM): 0.863
- relative viability (ABC-1; first compound 0.8 µM): 0.786
- relative viability (ABC-1; first compound 2.53 µM): 0.772
- relative viability (ABC-1; first compound 8 µM): 0.825
- relative viability (A-427; first compound 0.08 µM): 1.11
- relative viability (A-427; first compound 0.8 µM): 1.12
- relative viability (A-427; first compound 2.53 µM): 1.12
- relative viability (A-427; first compound 8 µM): 1.09
- relative viability (NCI-H1563; first compound 0.08 µM): 1.14
- relative viability (NCI-H1563; first compound 0.8 µM): 1.18
- relative viability (NCI-H1563; first compound 2.53 µM): 1.16
- relative viability (NCI-H1563; first compound 8 µM): 1.16
- relative viability (NCI-H1792; first compound 0.08 µM): 0.589
- relative viability (NCI-H1792; first compound 0.8 µM): 0.607
- relative viability (NCI-H1792; first compound 2.53 µM): 0.72
- relative viability (NCI-H1792; first compound 8 µM): 0.434
- relative viability (NCI-H2228; first compound 0.08 µM): 0.636
- relative viability (NCI-H2228; first compound 0.8 µM): 0.781
- relative viability (NCI-H2228; first compound 2.53 µM): 1.09
- relative viability (NCI-H2228; first compound 8 µM): 0.59
- relative viability (NCI-H2087; first compound 0.08 µM): 0.998
- relative viability (NCI-H2087; first compound 0.8 µM): 0.97
- relative viability (NCI-H2087; first compound 2.53 µM): 1.01
- relative viability (NCI-H2087; first compound 8 µM): 0.916
- relative viability (NCI-H1395; first compound 0.08 µM): 1.22
- relative viability (NCI-H1395; first compound 0.8 µM): 1.38
- relative viability (NCI-H1395; first compound 2.53 µM): 0.99
- relative viability (NCI-H1395; first compound 8 µM): 0.873
- relative viability (CAL-12T; first compound 0.08 µM): 0.783
- relative viability (CAL-12T; first compound 0.8 µM): 0.915
- relative viability (CAL-12T; first compound 2.53 µM): 0.749
- relative viability (CAL-12T; first compound 8 µM): 0.831
- relative viability (NCI-H322M; first compound 0.08 µM): 0.936
- relative viability (NCI-H322M; first compound 0.8 µM): 1.08
- relative viability (NCI-H322M; first compound 2.53 µM): 1.1
- relative viability (NCI-H322M; first compound 8 µM): 0.856
- relative viability (LCLC-97TM1; first compound 0.8 µM): 0.239
- relative viability (LCLC-97TM1; first compound 2.53 µM): 0.233
- relative viability (LCLC-97TM1; first compound 8 µM): 0.204
